test: log P (HPLC/MS data of the preparation examples); conditions: HCOOH

Compound	log P(HCOOH)
2-(6-{[({(3-bromo-4-methoxyphenyl)[3-chloro-5-(trifluoromethyl)pyridin-2-yl]methylene}amino)oxy]methyl}pyridin-2-yl)-1H-isoindole-1,3(2H)-dione [Example 430]	4.78
2-[({[(1-methyl-1H-imidazol-5-yl)(phenyl)methylene]amino}oxy)methyl]pyrimidin-4-amine [Example 105]	< 0.23
2-methyl-N-{4-[({[(1-methyl-1H-imidazol-5-yl)(phenyl)methylene]amino}-oxy)methyl]-1,3-thiazol-2-yl}propanamide [Example 143]	1.63
2-{6-[({[(1-methyl-1H-imidazol-5-yl)(3-thienyl)methylene]amino}oxy)-methyl]pyridin-2-yl}-1H-isoindole-1,3(2H)-dione [Example 491]	1.73
6-[({[(1-methyl-1H-imidazol-5-yl)(phenyl)methylene]amino}oxy)methyl]pyridin-2-amine [Example 108]	0.29
6-{[({(3-bromo-4-methoxyphenyl)[3-chloro-5-(trifluoromethyl)pyridin-2-yl]methylene}amino)oxy]methyl}pyridin-2-amine [Example 432]	2.54

same assay, conditions: HCOOH (formic acid)

Compound	chromatographic logP
Cc1ncc(C(=NO)c2ccccc2)n1C [1-(1,2-dimethyl-1H-imidazol-5-yl)-N-hydroxy-1-phenylmethanimine]	0.43
ON=C(c1ccsc1)c1snc(Cl)c1Cl [1-(3,4-dichloro-1,2-thiazol-5-yl)-N-hydroxy-1-(3-thienyl)methanimine]	3.04
Cc1cnc(C)c(C(=NO)c2ccccc2)n1 [1-(3,6-dimethylpyrazin-2-yl)-N-hydroxy-1-phenylmethanimine]	1.7
CON(C)C(=O)c1snc(Cl)c1Cl [3,4-dichloro-N-methoxy-N-methyl-1,2-thiazole-5-carboxamide]	1.66
Cc1ncc(C(=O)c2ccccc2)n1C [(1,2-dimethyl-1H-imidazol-5-yl)(phenyl)methanone]	0.56
Cn1ccnc1C(=O)c1ccccc1 [(1-methyl-1H-imidazol-2-yl)(phenyl)methanone]	1.38
Cn1cncc1C(=O)c1cccs1 [(1-methyl-1H-imidazol-5-yl)(2-thienyl)methanone]	0.52
Cn1cncc1C(=O)c1ccsc1 [(1-methyl-1H-imidazol-5-yl)(3-thienyl)methanone]	0.43
Cn1cncc1C(=O)c1ccccc1 [(1-methyl-1H-imidazol-5-yl)(phenyl)methanone]	0.79
O=C(c1ccsc1)c1snc(Cl)c1Cl [(3,4-dichloro-1,2-thiazol-5-yl)(3-thienyl)methanone]	3.31
Cc1cnc(C)c(C(C#N)c2ccccc2)n1 (stereo not shown) [(3,6-dimethylpyrazin-2-yl)(phenyl)acetonitrile]	2.28
Cc1cnc(C)c(C(=O)c2ccccc2)n1 [(3,6-dimethylpyrazin-2-yl)(phenyl)methanone]	2.18
Cc1nocc1C(=O)c1cccs1 [(3-methyl-1,2-oxazol-4-yl)(2-thienyl)methanone]	2.2
Cc1nocc1C(=NOC(=O)c1ccccn1)c1cccs1 [({[(3-methyl-1,2-oxazol-4-yl)(2-thienyl)methylene]amino}oxy)(pyridin-2-yl)methanone]	2.25

same assay, conditions: HPLC (LC-MS) method [b]: pH 2.7, 0.1% formic acid in water and acetonitrile, linear gradient 10% to 95% acetonitrile; EEC directive 79/831 Annex V.A8

Compound	log p
2-(6-{[({(3-bromo-4-methoxyphenyl)[3-chloro-5-(trifluoromethyl)pyridin-2-yl]methylene}amino)oxy]methyl}pyridin-2-yl)-1H-isoindole-1,3(2H)-dione [Example 430]	1.67^[b]
2-{6-[({[(1-methyl-1H-imidazol-5-yl)(3-thienyl)methylene]amino}oxy)-methyl]pyridin-2-yl}-1H-isoindole-1,3(2H)-dione [Example 491]	3.67^[b]
6-{[({(3-bromo-4-methoxyphenyl)[3-chloro-5-(trifluoromethyl)pyridin-2-yl]methylene}amino)oxy]methyl}pyridin-2-amine [Example 432]	1.99^[b]
Cn1cncc1C(=NOCc1cccc(N)n1)c1ccsc1 (single isomer, unassigned) [Example 418]	0.39^[b]
Cn1cncc1C(=NOCc1cccc(N)n1)c1ccsc1 (single isomer, unassigned) [Example 419]	0.32^[b]
CCCCCC(=O)Nc1cccc(CON=C(c2ccsc2)c2cncn2C)n1 (single isomer, unassigned) [Example 426]	1.99^[b]
CCCCCC(=O)Nc1cccc(CON=C(c2ccsc2)c2cncn2C)n1 (single isomer, unassigned) [Example 427]	1.99^[b]
CCCCCOC(=O)Nc1nc(CON=C(c2cccs2)c2cncn2C)cs1 (single isomer, unassigned) [Example 459]	2.16^[b]
CCCCCOC(=O)Nc1nc(CON=C(c2cccs2)c2cncn2C)cs1 (single isomer, unassigned) [Example 460]	2.25^[b]
CCCCCOC(=O)Nc1nc(CON=C(c2ccsc2)c2cncn2C)cs1 (single isomer, unassigned) [Example 461]	2.22^[b]
CCCCCOC(=O)Nc1nc(CON=C(c2ccsc2)c2cncn2C)cs1 (single isomer, unassigned) [Example 462]	2.23^[b]

same assay, conditions: HPLC on reversed phase columns, method [a]: pH 2.3 with 0.1% phosphoric acid and acetonitrile as eluent

Compound	log p
Cc1nnsc1C(=NOCc1ccccn1)c1ccccc1 [Example 1]	2.36^[a]

same assay, conditions: HPLC/MS with HCOOH (formic acid)

Compound	chromatographic logP
COc1ccc(C(=NO)c2ncc(C(F)(F)F)cc2Cl)cc1Br [1-(3-bromo-4-methoxyphenyl)-1-[3-chloro-5-(trifluoromethyl)pyridin-2-yl]-N-hydroxymethanimine]	3.37

same assay, conditions: LC-MS, method [b]: pH 2.7 with 0.1% formic acid in water and acetonitrile, linear gradient 10% to 95% acetonitrile

Compound	log p
2-[({[(1-methyl-1H-imidazol-2-yl)(phenyl)methylene]amino}oxy)methyl]pyrimidin-4-amine [Example 7]	1.26^[b]
2-[({[(1-methyl-1H-imidazol-5-yl)(phenyl)methylene]amino}oxy)methyl]pyrimidin-4-amine [Example 105]	5.05^[b]
6-[({[(1-methyl-1H-imidazol-5-yl)(phenyl)methylene]amino}oxy)methyl]pyridin-2-amine [Example 108]	4.75^[b]
Cn1cncc1C(=NOCc1cccc(N)n1)c1ccccc1 (single isomer, unassigned) [Example 97]	0.25^[b]
Cn1cncc1C(=NOCc1cccc(N)n1)c1ccccc1 (single isomer, unassigned) [Example 98]	0.29^[b]
Cn1cncc1C(=NOCc1cccc(NC(=O)C(C)(C)C)n1)c1ccccc1 (single isomer, unassigned) [Example 123]	2.1^[b]
Cn1cncc1C(=NOCc1cccc(NC(=O)C(C)(C)C)n1)c1ccccc1 (single isomer, unassigned) [Example 126]	1.85^[b]
CCCCCOC(=O)Nc1cccc(CON=C(c2ccccc2)c2ocnc2C)n1 (single isomer, unassigned) [Example 318]	4.34^[b]
CCCCCOC(=O)Nc1cccc(CON=C(c2ccccc2)c2ocnc2C)n1 (single isomer, unassigned) [Example 319]	4.54^[b]
CCCCCOC(=O)Nc1nc(CON=C(c2ccccc2)c2ocnc2C)cs1 (single isomer, unassigned) [Example 322]	3.87^[b]
CCCCCC(=O)Nc1cccc(CON=C(c2ccccc2)c2ocnc2C)n1 (single isomer, unassigned) [Example 323]	3.67^[b]
Cc1ncoc1C(=NOCc1csc(N)n1)c1ccccc1 (single isomer, unassigned) [Example 350]	1.3^[b]
Cn1ccnc1C(=NOCc1cccc(N2C(=O)c3ccccc3C2=O)n1)c1ccccc1 [Example 2]	1.8^[b]
Cc1cccc(C(=NOCc2cccc(N3C(=O)c4ccccc4C3=O)n2)c2ncnn2C)c1 [Example 5]	3.04^[b]
Cc1ccccc1C(=NOCc1cccc(N)n1)c1ncnn1C [Example 6]	0.96^[b]
Cc1cccc(C(=NOCc2cccc(N)n2)c2ncnn2C)c1 [Example 8]	1.27^[b]
Cc1ccccc1C(=NOCc1cccc(N2C(=O)c3ccccc3C2=O)n1)c1ncnn1C [Example 9]	2.78^[b]
Cc1ccc(C(=NOCc2cccc(N3C(=O)c4ccccc4C3=O)n2)c2ncnn2C)cc1 [Example 10]	2.92^[b]
Cn1ccnc1C(=NOCc1cccc(N)n1)c1ccccc1 [Example 11]	0.36^[b]

same assay, conditions: LC-MS, method [c]: pH 7.8 with 0.001 molar ammonium hydrogen carbonate solution in water, linear gradient 10% to 95% acetonitrile

Compound	log p
Cn1ccnc1C(=NOCc1nccc(N)n1)c1ccccc1 [Example 3]	1.42^[c]
Cn1ccnc1C(=NOCc1cccc(N)n1)c1ccccc1 [Example 11]	1.89^[c];

same assay, conditions: Neutral

Compound	log P(Neutral)
2-[({[(1-methyl-1H-imidazol-2-yl)(phenyl)methylene]amino}oxy)methyl]pyrimidin-4-amine [Example 7]	1.42

same assay, conditions: method [b]: LC-MS at pH 2.7, 0.1% formic acid in water / acetonitrile, linear gradient 10% to 95% acetonitrile

Compound	log p
2-methyl-N-{4-[({[(1-methyl-1H-imidazol-5-yl)(phenyl)methylene]amino}-oxy)methyl]-1,3-thiazol-2-yl}propanamide [Example 143]	1.11^[b]
Cc1nc(C(=NOCc2cccc(N3C(=O)c4ccccc4C3=O)n2)c2ccccc2)cs1 (single isomer, unassigned) [Example 168]	3.27^[b]
Cc1nc(C(=NOCc2cccc(N)n2)c2ccccc2)cs1 (single isomer, unassigned) [Example 169]	1.7^[b]
Cc1nc(C(=NOCc2cccc(N3C(=O)c4ccccc4C3=O)n2)c2ccccc2)cs1 (single isomer, unassigned) [Example 170]	3.55^[b]
Cc1nc(C(=NOCc2cccc(NC(=O)CC(C)C)n2)c2ccccc2)cs1 (single isomer, unassigned) [Example 171]	3.46^[b]
Cc1nc(C(=NOCc2cccc(NC(=O)Cc3ccccc3)n2)c2ccccc2)cs1 (single isomer, unassigned) [Example 173]	3.61^[b]
Cc1nc(C(=NOCc2cccc(N)n2)c2ccccc2)cs1 (single isomer, unassigned) [Example 174]	1.47^[b]
CCCCCC(=O)Nc1cccc(CON=C(c2ccccc2)c2csc(C)n2)n1 (single isomer, unassigned) [Example 188]	3.89^[b]
CCCCCC(=O)Nc1cccc(CON=C(c2ccccc2)c2csc(C)n2)n1 (single isomer, unassigned) [Example 189]	4.26^[b]
Cc1nc(C(=NOCc2cccc(NC(=O)CC(C)C)n2)c2ccccc2)cs1 (single isomer, unassigned) [Example 190]	3.75^[b]
Cc1nc(C(=NOCc2cccc(NC(=O)Cc3ccccc3)n2)c2ccccc2)cs1 (single isomer, unassigned) [Example 191]	3.87^[b]

same assay, conditions: reversed phase HPLC column, pH 2.7

Compound	chromatographic logP
Cn1ncnc1C(=NOCc1cccc(N)n1)c1ccccc1 [Example 4, 6-[({[(1-methyl-1H-1,2,4-triazol-5-yl)(phenyl)methylene]amino}oxy)methyl]pyridin-2-amine]	1

Reference: US8981111B2 (priority 2008, dated 2015)
